{
  "source": "ChEMBL document CHEMBL4118189",
  "about": "“Discovery of novel N-hydroxy-2-arylisoindoline-4-carboxamides as potent and selective inhibitors of HDAC11” (Bioorg Med Chem Lett, 2018)",
  "key": {"[1]": {"experiment": "Permeability of the compound by PAMPA", "format": "ADME", "conditions": "read-out: permeability"}, "[2]": {"experiment": "Kinetic solubility of the compound at pH 7.4", "format": "physicochemical", "conditions": "buffer, read-out: Kinetic_solubility"}, "Histone deacetylase 1": {"molecular_target": "Histone deacetylase 1 (Homo sapiens, UniProt Q13547)", "sequence (Q13547 whole entry)": "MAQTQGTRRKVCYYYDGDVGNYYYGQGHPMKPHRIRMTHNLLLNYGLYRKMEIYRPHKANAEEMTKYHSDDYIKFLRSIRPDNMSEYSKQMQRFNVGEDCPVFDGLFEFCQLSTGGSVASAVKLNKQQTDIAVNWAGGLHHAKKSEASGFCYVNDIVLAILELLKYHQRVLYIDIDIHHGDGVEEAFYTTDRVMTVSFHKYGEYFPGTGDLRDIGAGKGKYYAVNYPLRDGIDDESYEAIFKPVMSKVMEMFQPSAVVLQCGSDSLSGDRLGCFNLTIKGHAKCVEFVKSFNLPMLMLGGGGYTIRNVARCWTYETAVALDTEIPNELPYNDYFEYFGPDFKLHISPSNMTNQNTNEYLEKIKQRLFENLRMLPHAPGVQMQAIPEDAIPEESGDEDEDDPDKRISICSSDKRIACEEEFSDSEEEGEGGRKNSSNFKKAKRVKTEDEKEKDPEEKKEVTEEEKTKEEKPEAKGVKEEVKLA", "experiment": "Inhibition of full length recombinant human HDAC1 using fluorescent-labeled peptide as substrate by electrophoretic mobility shift assay"}, "Histone deacetylase 11 [3]": {"molecular_target": "T1, Histone deacetylase 11 (Homo sapiens, UniProt Q96DB2)", "T1 sequence (Q96DB2 whole entry)": "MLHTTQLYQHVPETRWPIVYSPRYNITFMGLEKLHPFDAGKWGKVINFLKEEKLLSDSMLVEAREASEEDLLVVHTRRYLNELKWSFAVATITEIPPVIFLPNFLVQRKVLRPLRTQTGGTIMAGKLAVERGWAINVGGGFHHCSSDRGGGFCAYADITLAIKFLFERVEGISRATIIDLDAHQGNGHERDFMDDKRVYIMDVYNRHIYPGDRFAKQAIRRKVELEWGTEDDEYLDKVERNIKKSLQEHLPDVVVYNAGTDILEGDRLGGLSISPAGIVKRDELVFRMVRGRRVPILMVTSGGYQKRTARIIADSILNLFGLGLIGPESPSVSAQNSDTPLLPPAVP", "experiment": "Inhibition of full length recombinant human HDAC11 expressed in baculoviral expression system using FAM-RHKK as substrate by electrophoretic mobility shift assay"}, "[4]": {"molecular_target": "T2, Protein deacetylase HDAC6 (Homo sapiens, UniProt Q9UBN7)", "T2 sequence (Q9UBN7 whole entry)": "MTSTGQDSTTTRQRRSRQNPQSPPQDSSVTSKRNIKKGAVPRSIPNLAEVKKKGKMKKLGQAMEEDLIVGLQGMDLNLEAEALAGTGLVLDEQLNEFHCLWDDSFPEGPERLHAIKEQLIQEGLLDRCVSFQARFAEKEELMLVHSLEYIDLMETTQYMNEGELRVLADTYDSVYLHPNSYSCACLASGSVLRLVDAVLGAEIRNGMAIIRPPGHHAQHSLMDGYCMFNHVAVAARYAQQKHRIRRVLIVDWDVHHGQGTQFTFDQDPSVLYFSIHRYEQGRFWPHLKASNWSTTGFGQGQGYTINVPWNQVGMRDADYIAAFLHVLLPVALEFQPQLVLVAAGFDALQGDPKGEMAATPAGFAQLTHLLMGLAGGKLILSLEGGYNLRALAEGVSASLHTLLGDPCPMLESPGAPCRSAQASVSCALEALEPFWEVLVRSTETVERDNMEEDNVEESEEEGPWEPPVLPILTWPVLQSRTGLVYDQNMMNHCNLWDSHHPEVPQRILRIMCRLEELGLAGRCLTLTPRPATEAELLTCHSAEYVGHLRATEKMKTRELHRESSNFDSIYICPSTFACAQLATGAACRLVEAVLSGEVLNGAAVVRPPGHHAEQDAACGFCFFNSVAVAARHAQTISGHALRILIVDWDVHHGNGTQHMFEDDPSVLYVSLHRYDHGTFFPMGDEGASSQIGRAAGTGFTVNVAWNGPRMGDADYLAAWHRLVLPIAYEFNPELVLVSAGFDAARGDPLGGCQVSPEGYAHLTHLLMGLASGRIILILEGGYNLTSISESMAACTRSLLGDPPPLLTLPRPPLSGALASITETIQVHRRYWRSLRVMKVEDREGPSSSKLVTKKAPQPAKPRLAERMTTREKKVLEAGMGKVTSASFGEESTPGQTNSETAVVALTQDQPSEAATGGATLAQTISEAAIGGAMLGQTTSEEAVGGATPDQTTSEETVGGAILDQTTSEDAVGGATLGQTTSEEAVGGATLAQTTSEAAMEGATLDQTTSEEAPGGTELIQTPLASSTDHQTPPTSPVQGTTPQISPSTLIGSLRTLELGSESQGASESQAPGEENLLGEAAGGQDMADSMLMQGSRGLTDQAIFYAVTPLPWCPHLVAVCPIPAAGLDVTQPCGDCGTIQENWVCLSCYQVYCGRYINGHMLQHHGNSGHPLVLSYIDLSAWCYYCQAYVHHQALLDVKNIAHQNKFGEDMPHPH", "experiment": "Inhibition of full length recombinant human HDAC6 using fluorescent-labeled peptide as substrate by electrophoretic mobility shift assay"}, "Histone deacetylase 8": {"molecular_target": "T3, Histone deacetylase 8 (Homo sapiens, UniProt Q9BY41)", "T3 sequence (Q9BY41 whole entry)": "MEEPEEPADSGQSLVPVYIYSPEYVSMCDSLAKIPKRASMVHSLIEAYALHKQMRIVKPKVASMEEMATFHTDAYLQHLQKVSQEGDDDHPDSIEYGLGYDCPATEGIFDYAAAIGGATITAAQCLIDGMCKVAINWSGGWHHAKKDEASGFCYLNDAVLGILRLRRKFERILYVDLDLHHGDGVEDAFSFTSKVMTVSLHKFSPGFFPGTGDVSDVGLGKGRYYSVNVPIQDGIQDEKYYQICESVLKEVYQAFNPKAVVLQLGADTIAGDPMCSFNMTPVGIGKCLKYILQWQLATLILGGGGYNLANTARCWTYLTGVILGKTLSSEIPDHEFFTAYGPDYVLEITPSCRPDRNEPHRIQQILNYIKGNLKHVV", "experiment": "Inhibition of full length recombinant human HDAC8 using fluorescent-labeled peptide as substrate by electrophoretic mobility shift assay"}, "Histone deacetylase 4": {"molecular_target": "Histone deacetylase 4 (Homo sapiens, UniProt P56524)", "sequence (P56524 whole entry)": "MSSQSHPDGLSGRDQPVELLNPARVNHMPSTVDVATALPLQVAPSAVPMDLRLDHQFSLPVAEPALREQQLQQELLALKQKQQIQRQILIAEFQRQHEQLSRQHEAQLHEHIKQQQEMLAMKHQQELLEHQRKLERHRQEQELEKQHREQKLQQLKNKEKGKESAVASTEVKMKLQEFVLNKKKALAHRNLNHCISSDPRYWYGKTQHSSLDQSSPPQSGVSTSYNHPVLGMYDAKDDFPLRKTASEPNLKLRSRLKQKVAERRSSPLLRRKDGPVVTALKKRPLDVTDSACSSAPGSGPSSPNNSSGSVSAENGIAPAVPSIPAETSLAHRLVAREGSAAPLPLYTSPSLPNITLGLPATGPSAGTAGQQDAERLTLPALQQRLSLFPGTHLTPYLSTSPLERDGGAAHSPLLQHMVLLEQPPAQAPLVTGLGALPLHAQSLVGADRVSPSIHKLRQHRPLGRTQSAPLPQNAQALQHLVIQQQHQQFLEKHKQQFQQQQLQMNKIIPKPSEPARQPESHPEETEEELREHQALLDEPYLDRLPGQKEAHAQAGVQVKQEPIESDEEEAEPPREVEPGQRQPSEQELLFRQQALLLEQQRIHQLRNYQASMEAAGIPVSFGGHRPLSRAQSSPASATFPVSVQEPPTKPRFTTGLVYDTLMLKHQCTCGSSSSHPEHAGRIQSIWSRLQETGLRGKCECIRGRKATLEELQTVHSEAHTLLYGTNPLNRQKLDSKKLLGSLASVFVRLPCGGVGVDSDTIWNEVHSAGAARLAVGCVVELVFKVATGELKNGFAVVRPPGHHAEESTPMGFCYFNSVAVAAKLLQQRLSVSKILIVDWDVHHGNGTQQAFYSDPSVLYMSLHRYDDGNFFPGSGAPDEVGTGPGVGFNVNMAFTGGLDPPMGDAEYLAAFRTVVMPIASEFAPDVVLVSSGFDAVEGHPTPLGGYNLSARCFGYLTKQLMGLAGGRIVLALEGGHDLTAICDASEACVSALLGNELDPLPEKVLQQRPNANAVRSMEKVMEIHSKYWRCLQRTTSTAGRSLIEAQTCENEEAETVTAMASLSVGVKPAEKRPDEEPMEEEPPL", "experiment": "Inhibition of full length recombinant human HDAC4 using fluorescent-labeled peptide as substrate by electrophoretic mobility shift assay"}, "Histone deacetylase 11 [5]": {"molecular_target": "T1, Histone deacetylase 11", "experiment": "Inhibition of NanoLuc-tagged HDAC11 (unknown origin) by BRET assay"}},
  "data": [
    {"compound": "CC1(C)c2cccc(C(N)=O)c2CN1c1cnc(C(F)(F)F)cn1", "values": [
      {"measurement": "Papp", "setting": "[1]", "value": 17, "unit": "×10⁻⁶ cm/s"},
      {"measurement": "solubility kinetic", "setting": "[2]", "value": 0.3, "unit": "µM"},
      {"measurement": "IC50", "setting": "Histone deacetylase 1", "value": "> 10", "unit": "µM"},
      {"measurement": "IC50", "setting": "Histone deacetylase 11 [3]", "value": "> 10", "unit": "µM"},
      {"measurement": "IC50", "setting": "[4]", "value": "> 10", "unit": "µM"},
      {"measurement": "IC50", "setting": "Histone deacetylase 8", "value": "> 10", "unit": "µM"},
      {"measurement": "IC50", "setting": "Histone deacetylase 4", "value": "> 10", "unit": "µM"},
      {"measurement": "IC50", "setting": "Histone deacetylase 11 [5]", "value": "> 25", "unit": "µM"}
    ]}
  ]
}
